The source made the active and inactive calls.

The target in one assay is T1, Polyadenylate-binding protein 1 (Homo sapiens, UniProt P11940). Description: PABP1 MLLE–PAM2 binding inhibitor potency, dose response, biochemical, fluorescence polarization, FITC-PAM2 peptide (AID 602259). It is filed as functional. The following applies: read-out: IC50_Mean.
T1 sequence (P11940 whole entry): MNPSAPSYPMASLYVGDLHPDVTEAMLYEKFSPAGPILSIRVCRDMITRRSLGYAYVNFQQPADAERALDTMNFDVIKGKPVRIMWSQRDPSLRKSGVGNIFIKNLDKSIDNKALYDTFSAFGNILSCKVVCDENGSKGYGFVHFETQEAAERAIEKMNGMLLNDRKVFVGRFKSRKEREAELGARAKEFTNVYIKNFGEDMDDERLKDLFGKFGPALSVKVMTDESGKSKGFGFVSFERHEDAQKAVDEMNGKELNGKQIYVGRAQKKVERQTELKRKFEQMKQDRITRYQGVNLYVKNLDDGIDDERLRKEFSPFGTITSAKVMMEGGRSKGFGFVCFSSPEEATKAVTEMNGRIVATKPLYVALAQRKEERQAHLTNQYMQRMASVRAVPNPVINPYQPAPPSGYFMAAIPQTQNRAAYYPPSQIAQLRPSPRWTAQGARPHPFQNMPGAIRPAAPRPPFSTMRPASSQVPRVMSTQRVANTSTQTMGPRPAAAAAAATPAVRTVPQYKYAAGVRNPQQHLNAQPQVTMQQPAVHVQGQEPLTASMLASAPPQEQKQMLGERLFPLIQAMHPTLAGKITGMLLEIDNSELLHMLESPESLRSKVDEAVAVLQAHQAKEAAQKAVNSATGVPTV
`COc1ccccc1C(=O)NCCn1ccc2ccccc21`: the IC50 was > 66 µM (inactive).

Take `N#Cc1c(O)nc(-c2ccco2)c2c1CCCC2`: the IC50 is > 66 µM (inactive).

Take `COc1ccc2oc(=O)c(C(=O)OCc3ccccc3)cc2c1`: the IC50 was > 66 µM (inactive).

In a further assay the target is T1, Polyadenylate-binding protein 1. The assay can be described thus: PABP1 MLLE–PAM2 interaction inhibitors, dose response, miRNA deadenylation inhibitor project, biochemical, fluorescence polarization, Cy5-PAM2 peptide, secondary (AID 602260). Type of assay: functional. The conditions noted are these: read-out: IC50_Mean.
Take `COc1ccccc1C(=O)NCCn1ccc2ccccc21`: the IC50 is > 66 µM (inactive).

For the compound `N#Cc1c(O)nc(-c2ccco2)c2c1CCCC2`, the IC50 is > 66 µM (inactive).

Turning to `COc1ccc2oc(=O)c(C(=O)OCc3ccccc3)cc2c1`, the IC50 was > 66 µM (inactive).

The subject of a further assay is H4. Description: Luminescence Cell-Based Dose Response HTS to Identify Activators of 5'UTR Stem-Loop Driven Prion Protein mRNA Translation in H4 Neuroglioblastoma Cells. [Related pubchem assays: 1829 (Project Summary), 1814 (Primary HTS)]. Type of assay: functional. The conditions noted are these: Homo sapiens.
Consider `O=C(NN=C(NS(=O)(=O)c1ccc(Cl)cc1)c1ccccc1)c1cccc(Cl)c1`, for which the EC50 was > 120 µM (not active).

The test system of the next assay is H9c2. Description: cells. Type of assay: functional, cell-based. The conditions noted are these: Rattus norvegicus, H9c2, Myocardium.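 Also: confirmatory concentration-response retest of ultra-high-throughput screening hits for modulation of myocardial damage; cell death induced by hydrogen peroxide oxidative stress; compound pretreatment for 60 min then peroxide exposure for 2 h; potency is for protecting the cells against peroxide damage rather than for killing them.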
Consider `Cc1c(NC(=O)Cn2[nH]c(=O)c3ccccc3c2=O)c(=O)n(-c2ccccc2)n1C`, for which the IC50 is 38.5 µM (inactive).

With `CCOc1cccc(-c2nn3c(-c4ccccn4)nnc3s2)c1`, the IC50 is > 79 µM (inactive).

For the compound `COc1cc2c(C#CCCO)c(-c3ccsc3)oc(=O)c2cc1OC`, the IC50 was 20.7 µM (active).

As to `O=S(=O)(c1ccc(Cl)cc1)c1cc(O)ccc1O`, the IC50 was 12.4 µM (active).

As for `COc1cccc(CN2CCN(C(=O)c3cc(-c4cccnc4)nc4ccc(C)cc34)CC2)c1`, the IC50 was 11.6 µM (active).

For `COc1ccccc1C(=O)Nc1nc(-c2ccc3c(c2)OCCO3)cs1`, the IC50 was > 79 µM (inactive).

As for `COc1ccccc1OCC(=O)Nc1sc2c(c1C(=O)NCC1CCCO1)CCC2` (centres undefined), the IC50 was 30.4 µM (inactive).

Turning to `COc1ccc(C(C)=O)cc1COC(=O)Cc1nnc(O)c2ccccc12`, the IC50 is > 79 µM (inactive).

System in a further assay: not listed separately
Description: Luminescence Cell-Based Dose Response HTS to Identify Activators of Luciferase Translation or Activity in H4 […] Cells. [Related pubchem assays: 1829 (Project Summary), 1814 (Primary HTS)].
Settings: not given
It is filed as functional.
Consider `O=C(NN=C(NS(=O)(=O)c1ccc(Cl)cc1)c1ccccc1)c1cccc(Cl)c1`, for which the concentration for a half-maximal effect (EC50) was 7.54 µM (active).

The target of a further assay is T2, Protein skinhead-1 (Caenorhabditis elegans, UniProt P34707).
T2 sequence (P34707 whole entry): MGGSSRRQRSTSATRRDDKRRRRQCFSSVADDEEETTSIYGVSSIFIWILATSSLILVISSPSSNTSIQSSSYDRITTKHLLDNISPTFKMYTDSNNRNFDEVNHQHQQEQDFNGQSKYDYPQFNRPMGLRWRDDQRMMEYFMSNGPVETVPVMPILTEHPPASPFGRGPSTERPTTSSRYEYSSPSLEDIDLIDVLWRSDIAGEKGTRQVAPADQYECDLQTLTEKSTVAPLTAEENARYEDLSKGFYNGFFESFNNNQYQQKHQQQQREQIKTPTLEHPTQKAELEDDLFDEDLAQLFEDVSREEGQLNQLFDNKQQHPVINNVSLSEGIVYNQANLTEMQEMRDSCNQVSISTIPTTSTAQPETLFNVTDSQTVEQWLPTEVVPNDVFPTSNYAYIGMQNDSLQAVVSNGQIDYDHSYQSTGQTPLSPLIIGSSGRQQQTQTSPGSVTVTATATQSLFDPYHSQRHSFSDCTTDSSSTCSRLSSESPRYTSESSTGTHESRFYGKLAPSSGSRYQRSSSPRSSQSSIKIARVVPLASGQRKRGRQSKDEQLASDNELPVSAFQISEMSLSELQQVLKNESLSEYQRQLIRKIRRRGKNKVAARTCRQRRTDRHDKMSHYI
Assay: not given
Type of assay: functional.
Settings: not given
With `Fc1ccc(-n2nnc(-c3nccs3)n2)cc1`, the IC50 was 22.8 µM (active).

In the case of `CCCCOc1ccc(C(=O)OC2CC(C)N(C)CC2C)cc1` (centres undefined), the IC50 was 27.6 µM (active).

Take `Cc1cc2ccccn2c1C(=O)Nc1cccc(Cl)c1`: the IC50 was > 100 µM (inactive).

For `Brc1ccc(OCc2n[nH]c(-c3ccccn3)n2)cc1`, the IC50 is > 100 µM (inactive).

For the compound `Brc1ccc2nc(N3CCCC3)sc2c1`, the IC50 is 79.4 µM (inactive).

Take `Cc1cnc(C(=O)Nc2ccccc2-c2ccc(C)o2)cn1`: the IC50 was > 100 µM (inactive).

On to `O=C(CN(Cc1ccco1)C(=O)CNS(=O)(=O)c1ccc(Cl)cc1)NC1CCCCC1`, for which the IC50 was > 100 µM (inactive).

For `Cc1cc(OCC(O)CN2CCN(C)CC2)ccc1C(C)C` (centres undefined), the IC50 is > 100 µM (inactive).

The record behind these values is ChEMBL document CHEMBL1201862, “PubChem BioAssay data set” (2004).
